Format in all cases: in vivo
For assay [1], the system named is redroot pigweed (Amaranthus retroflexus, AMARE). Put plainly: Pre-emerge test, greenhouse herbicide activity screening. Conditions: Amaranthus retroflexus, pre-emergence, 336 h, read-out: Pre-emerge Herbicidal Activity AMARE. The gist of the method:
(§1)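 Sandy loam pots; pre-emerge: sown 1 d pre-spray, surface-watered after, then bottom-watered. Post-emerge: sown 8–21 d before, 2–3 leaf stage, + 0.25% v/v NIS, bottom-watered. Acetone, 187 l/ha track spray, 15–1000 g ai/ha. 0–100 injury score, day 14.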

Assay [2] concerns velvetleaf (Abutilon theophrasti, ABUTH). The description is as above. The conditions noted are these: Abutilon theophrasti, pre-emergence, 336 h, read-out: Pre-emerge Herbicidal Activity ABUTH. Put shortly: as §1
In assay [3] the test system is barnyardgrass (Echinochloa crus-galli, ECHCG). Description: Post-emerge test, greenhouse herbicide activity screening. Conditions: post-emerge; for pest or weed control at 63 g/ha / pest or weed control at 250 g/ha: Echinochloa crus-galli, post-emergence, 336 h, phytotoxicity rating 0-100 at 14 days after application, read-out: Post-emerge Herbicidal Activity ECHCG; for phytotoxicity rating ECHCG: 14 days after application, rating scale 0-100. The gist of the method: (§2)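 Each test used a mechanized track sprayer delivering 187 l/ha of acetone solution at 15–1000 g ai/ha. Post-emerge foliage at 2–3 leaves was treated with added 0.25% v/v non-ionic surfactant and bottom-watered only. Injury was assessed on day 14, where 100 means total kill.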

Assay [4] deals with green foxtail (Setaria viridis, SETVI). The description is as above. Conditions: post-emerge; for pest or weed control at 63 g/ha / pest or weed control at 250 g/ha: Setaria viridis, post-emergence, 336 h, phytotoxicity rating 0-100 at 14 days after application, read-out: Post-emerge Herbicidal Activity SETVI; for phytotoxicity rating SETVI: 14 days after application, rating scale 0-100. The gist of the method:
as §2

Assay [5] concerns ivyleaf morningglory (Ipomoea hederacea, IPOHE). The assay is described as above. The conditions noted are these: post-emerge; for pest or weed control at 63 g/ha / pest or weed control at 250 g/ha: Ipomoea, post-emergence, 336 h, phytotoxicity rating 0-100 at 14 days after application, read-out: Post-emerge Herbicidal Activity IPOHE; for phytotoxicity rating IPOHE: 14 days after application, rating scale 0-100. Put shortly: as §2

Assay [6] deals with johnsongrass (Sorghum halepense, SORHA). Described as above. The conditions noted are these: post-emerge; for pest or weed control at 63 g/ha / pest or weed control at 250 g/ha: Sorghum halepense, post-emergence, 336 h, phytotoxicity rating 0-100 at 14 days after application, read-out: Post-emerge Herbicidal Activity SORHA; for phytotoxicity rating SORHA: 14 days after application, rating scale 0-100. Put shortly: as §2

The subject of assay [7] is lambsquarters (Chenopodium album, CHEAL). The assay is described as above. The conditions noted are these: post-emerge; for pest or weed control at 63 g/ha / pest or weed control at 250 g/ha: Chenopodium album, post-emergence, 336 h, phytotoxicity rating 0-100 at 14 days after application, read-out: Post-emerge Herbicidal Activity CHEAL; for phytotoxicity rating CHEAL: 14 days after application, rating scale 0-100. The gist of the method: as §2

For assay [8], the system named is large crabgrass (Digitaria sanguinalis, DIGSA). Described as above. Conditions: post-emerge; for pest or weed control at 63 g/ha / pest or weed control at 250 g/ha: Digitaria sanguinalis, post-emergence, 336 h, phytotoxicity rating 0-100 at 14 days after application, read-out: Post-emerge Herbicidal Activity DIGSA; for phytotoxicity rating DIGSA: 14 days after application, rating scale 0-100. Put shortly:
as §2

Assay [9] concerns redroot pigweed (Amaranthus retroflexus, AMARE). The description is as above. Conditions: post-emerge; for pest or weed control at 63 g/ha / pest or weed control at 250 g/ha: Amaranthus retroflexus, post-emergence, 336 h, phytotoxicity rating 0-100 at 14 days after application, read-out: Post-emerge Herbicidal Activity AMARE; for phytotoxicity rating AMARE: 14 days after application. The gist of the method:
as §2

Assay [10] deals with sicklepod (Cassia obtusifolia, CASOB). The description is as above. Conditions: post-emerge; for pest or weed control at 63 g/ha / pest or weed control at 250 g/ha: Senna obtusifolia, post-emergence, 336 h, phytotoxicity rating 0-100 at 14 days after application, read-out: Post-emerge Herbicidal Activity CASOB; for phytotoxicity rating CASOB: 14 days after application, rating scale 0-100. The gist of the method: as §2

For assay [11], the system named is velvetleaf (Abutilon theophrasti, ABUTH). The description is as above. Conditions: post-emerge; for pest or weed control at 63 g/ha / pest or weed control at 250 g/ha: Abutilon theophrasti, post-emergence, 336 h, phytotoxicity rating 0-100 at 14 days after application, read-out: Post-emerge Herbicidal Activity ABUTH; for phytotoxicity rating ABUTH: 14 days after application, rating scale 0-100. The gist of the method:
as §2

Setting [12] is: pre-emerge, rate 63 g ai/ha, phytotoxicity rating 0-100 at 14 days after application.
[13] abbreviates: pre-emerge, rate 250 g ai/ha, phytotoxicity rating 0-100 at 14 days after application.
[14] abbreviates: 63 g ai/ha, phytotoxicity rating 0-100, 14 days after application.
Setting [15] is: 250 g ai/ha, phytotoxicity rating 0-100, 14 days after application.

Consider `COc1c(Cl)cc(F)c(-c2nn(C)c(C(F)(F)F)c2Cl)c1NC(=O)C=Cc1ccccc1` [Compound 7-15], for which the pest or weed control at 63 g/ha in assay [1] (setting [12]) was determined as 80%; in assay [2] (setting [12]), 40%; in assay [3] (63 g ai/ha) it was 0%; in assay [4] (63 g ai/ha), 10%; in [5] (63 g ai/ha), 70%; in assay [6] (63 g ai/ha) it was 0%. Also, the pest or weed control at 63 g/ha in [7] (63 g ai/ha) is 100%; in assay [8] (63 g ai/ha) it was 0%; in assay [9] (63 g ai/ha) it was 100%; in [10] (63 g ai/ha) it was 40%; in assay [11] (63 g ai/ha) it was 100%. The pest or weed control at 250 g/ha in assay [1] (setting [13]) amounted to 100%; in assay [2] (setting [13]), 90%; in [3] (250 g ai/ha), 10%; in assay [4] (250 g ai/ha) it was 10%; in assay [5] (250 g ai/ha) it was 70%; in assay [6] (250 g ai/ha) it was 0%. Besides, the pest or weed control at 250 g/ha was 100% in assay [7] (250 g ai/ha); 0% in assay [8] (250 g ai/ha); 100% in [9] (250 g ai/ha); 80% in assay [10] (250 g ai/ha); 99% in assay [11] (250 g ai/ha).
With `CC(C)Oc1c(Cl)cc(F)c(-n2nnn(CCCF)c2=O)c1N` [Compound 5-18, 1-(2-amino-4-chloro-6-fluoro-3-isopropyloxyphenyl)-4-(3fluoropropyl)-1,4-dihydro-5-oxo-5H-tetrazole], the pest or weed control at 63 g/ha in assay [1] (setting [12]) was determined as 30%; in assay [2] (setting [12]), 40%; in [3] (63 g ai/ha), 0%; in assay [4] (63 g ai/ha) it was 0%; in assay [5] (63 g ai/ha), 0%; in assay [6] (63 g ai/ha), 0%. The pest or weed control at 63 g/ha in assay [7] (63 g ai/ha) is 10%; in [8] (63 g ai/ha) it was 0%; in assay [9] (63 g ai/ha), 0%; in assay [10] (63 g ai/ha), 0%; in assay [11] (63 g ai/ha), 70%. For the same compound, the pest or weed control at 250 g/ha in assay [1] (setting [13]) worked out at 0%; in assay [2] (setting [13]) it was 70%; in assay [3] (250 g ai/ha), 0%; in assay [4] (250 g ai/ha), 0%; in [5] (250 g ai/ha), 0%; in assay [6] (250 g ai/ha), 0%. Besides, the pest or weed control at 250 g/ha turned out to be 10% in assay [7] (250 g ai/ha); 0% in assay [8] (250 g ai/ha); 10% in assay [9] (250 g ai/ha); 0% in assay [10] (250 g ai/ha); 70% in assay [11] (250 g ai/ha).
Consider `CNC(=O)N(C(=O)NC)c1c(OC)c(Cl)cc(F)c1-n1c(=O)cc(C(F)(F)F)n(C)c1=O` [Compound 3-1, 3-[2-bis(methylaminocarbonyl)amino-4-chloro-6-fluoro-3-methoxyphenyl]-1-methyl-6-trifluoromethyl-2,4(1H, 3H)-pyrimidinedione], for which the pest or weed control at 63 g/ha in assay [1] (setting [14]) and in [2] (setting [14]) was 0% each time. Further, the pest or weed control at 250 g/ha worked out at 30% in assay [1] (setting [15]) and 20% in [2] (setting [15]). Moreover, the “phytotoxicity rating ECHCG” value in [3] (63 g ai/ha) and in [3] (250 g ai/ha) was 0 throughout. Further, the “phytotoxicity rating SETVI” value in assay [4] (63 g ai/ha) and in assay [4] (250 g ai/ha) was 0 throughout. Besides, the entries for the “phytotoxicity rating IPOHE” value in [5] (63 g ai/ha) and in assay [5] (250 g ai/ha) were 0 and 30, respectively. For the same compound, the “phytotoxicity rating SORHA” value in assay [6] (63 g ai/ha) and in assay [6] (250 g ai/ha) was 0 each time. Besides, the “phytotoxicity rating CHEAL” value came to 0 in assay [7] (63 g ai/ha) and 60 in assay [7] (250 g ai/ha). The “phytotoxicity rating DIGSA” value in [8] (63 g ai/ha) and in assay [8] (250 g ai/ha) was 0 in each case. The “phytotoxicity rating AMARE” value in assay [9] (63 g ai/ha, rating scale 0-100 (0 no damage, 100 complete death)) was 0; in assay [9] (250 g ai/ha, rating scale 0-100), 60. Besides, the “phytotoxicity rating CASOB” value in assay [10] (63 g ai/ha) and in [10] (250 g ai/ha) was 0 throughout. For the same compound, the “phytotoxicity rating ABUTH” value in [11] (63 g ai/ha) and in assay [11] (250 g ai/ha) was 0 throughout.
In the case of `COc1c(Cl)cc(F)c(-c2nn(C)c(C(F)(F)F)c2Cl)c1N` [Compound 7-2, 4-chloro-3-(2-amino-4-chloro-6-fluoro3-metoxyphenyl)-1-methyl-5-trifluoromethyl-1H-pyrazole], the pest or weed control at 63 g/ha in assay [1] (setting [12]) came out at 100%; in assay [2] (setting [12]), 95%; in assay [3] (63 g ai/ha) it was 30%; in assay [4] (63 g ai/ha) it was 20%; in assay [5] (63 g ai/ha), 80%; in assay [6] (63 g ai/ha), 20%. Further, the pest or weed control at 63 g/ha was 95% in assay [7] (63 g ai/ha), 20% in [8] (63 g ai/ha), 100% in [9] (63 g ai/ha) and 100% in [11] (63 g ai/ha). Further, the pest or weed control at 250 g/ha in [1] (setting [13]) is 100%; in assay [2] (setting [13]), 100%; in assay [3] (250 g ai/ha), 90%; in assay [4] (250 g ai/ha) it was 50%; in assay [5] (250 g ai/ha) it was 100%; in assay [6] (250 g ai/ha) it was 40%. The pest or weed control at 250 g/ha turned out to be 100% in assay [7] (250 g ai/ha), 70% in assay [8] (250 g ai/ha), 100% in assay [9] (250 g ai/ha) and 100% in [11] (250 g ai/ha).

The record behind these values is US6355799B1, “Substituted benzene compounds, process for their preparation, and herbicidal and defoliant compositions containing them” (ISK Americas Incorporated, priority 1997, dated 2002).
